Data taken from patent publication US20170298051A1, “ACTIVATOR OF ADIPONECTIN RECEPTOR” (THE UNIVERSITY OF TOKYO, priority 2013, published 2017).

Legend:
AdipoR1 [1] = molecular target: T1, AdipoR1 (Homo sapiens, UniProt Q96A54); assay: Measurement of AMPK phosphorylation ability (Assay 1), HEK 293T cells, Western blotting; assay type: cell-based; parameters: HEK 293T cells (ATCC; CRL-3216, medium; host or cells: HEK 293T; conditions: 10 minutes
T1 sequence (Q96A54 1-375): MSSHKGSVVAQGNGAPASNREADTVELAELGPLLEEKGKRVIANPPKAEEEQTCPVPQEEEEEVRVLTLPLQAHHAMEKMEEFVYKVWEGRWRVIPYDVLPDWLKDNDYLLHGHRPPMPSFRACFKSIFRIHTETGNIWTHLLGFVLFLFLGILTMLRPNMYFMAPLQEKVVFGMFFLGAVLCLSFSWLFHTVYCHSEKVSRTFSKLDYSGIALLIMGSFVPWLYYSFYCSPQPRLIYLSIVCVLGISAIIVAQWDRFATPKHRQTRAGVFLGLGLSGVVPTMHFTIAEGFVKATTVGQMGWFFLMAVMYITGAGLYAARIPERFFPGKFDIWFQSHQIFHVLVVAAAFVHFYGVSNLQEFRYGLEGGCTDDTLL
Description: (§1) The AMPK phosphorylation ability of the respective compounds according to the present invention was measured by using differentiated C2C12 cells or HEK 293T cells.
HEK 293T cells (ATCC; CRL-3216, medium; DMEM, Fetal Bovine Serum (FBS)) were cultured in a 12- or 24-well plate until they reached 100% confluency (37° C., 5% CO2).
After starvation, a test compound listed in Tables 10 and 11 (concentration: 25 μM, 50 μM) was added thereto, and after 10 minutes, the medium was discarded and the plate was frozen with liquid nitrogen.
(§2) To the 12- or 24-well cell plate which had been frozen was added 100 or 150 μL of Cell lysis buffer pH 7.4 (50 mM HEPES (pH 7.4), 2 mM sodium orthovanadate, 10 mM sodium pyrophosphate, 10 mM NaF, 2 mM EDTA, 2 mM EGTA, 0.1% (v/v) NP-40, 0.2 mM PMSF), and the cells were scraped off with a cell scraper, suspended and transferred into a micro centrifugal tube. And then, the cells were ultrasonically crushed (1 second×3 times) with a sonicator. Centrifugation was performed at 4° C. at 15,000 rpm for 15 minutes, and the supernatant was recovered into a new tube.
(§3) To 100 μL of the supernatant was added 25 μL of 5× sample buffer (280 mM Tris-HCl (pH 6.9), 40% glycerol, 10% (3-mercaptoethanol, 13% SDS, a small amount of bromophenol blue) and mixed together. The rest of the supernatant was used for protein quantification, and the protein concentrations were uniformed by adding 1× sample buffer depending on the concentration of each sample.
(§4) An electrophoresis chamber was filled with 1× SDS buffer (25 mM Tris-HCl, 250 mM glycine, 0.1% SDS), and the sample was applied to a well of polyacrylamide gel. Electrophoresis was performed until the bromophenol blue in the sample reached to the bottom of the gel.
(§5) A filter paper was soaked in 1× Transfer buffer sufficiently, above which the PVDF membrane and the gel after electrophoresis were stacked in this order, and thereabove a filter paper which had been soaked in 1× Transfer buffer sufficiently was further stacked, from which an air was removed and the resultant was set in semi-dry type transfer apparatus and transferred (7V, 35 minutes).
(§6) An unnecessary portion of the blotted membrane was cutoff, and the rest was immediately soaked in blocking buffer (5% skimmed milk in Rinse buffer), and shaken at room temperature at 40 rpm for 3 hours.
(§7) After blocking, the membrane was transferred into Rinse buffer, and washed at room temperature for 10 minutes while shaking. The membrane was soaked in a primary antibody solution (AMPK alpha Antibody (Cell signaling; #2532) 1/1,000 in Rinse buffer, Phospho-AMPK alpha (Thr172) (40H9) antibody (Cell signaling; #2535) 1/1,000 in Rinse buffer), and shaken at 4° C. at 40 rpm overnight.
(§8) The membrane was soaked in a secondary antibody solution (goat anti-rabbit IgG-HRP Antibody (Santa Cruz; sc-2030) 1/2,000 in Rinse buffer), and shaken at room temperature at 40 rpm for 1 hour.
(§9) After the membrane was washed for 45 minutes in the same way as after the primary antibody reaction, the membrane was soaked in a chemiluminescent reaction solution (ECL Western Blotting Detection Reagents, GE Healthcare) for about 1 minute. An excess of the reaction solution was removed, and then the membranes were arranged on a transparent film and sandwiched with it, with which an X-ray film was exposed in a darkroom (for about several seconds to 60 seconds) to develop the film.
(§10) The X-ray film was scanned to take the image, for which the band was measured by using the image analysis software “Image J” to determine the respective amounts of pAMPK and AMPK.

AdipoR1 [2] = molecular target: T1, AdipoR1; assay: Measurement of AMPK phosphorylation ability (Assay 2), HEK 293T cells with unrelated or AdipoR1 siRNA; assay type: cell-based; parameters: HEK 293T cells (ATCC; CRL-3216, medium; host or cells: HEK 293T
Description: HEK 293T cells (medium; DMEM, 10% FBS) were cultured in a 24-well plate until they reached 60% confluency (37° C., 5% CO2).
First, 1 μL of Lipofectamine RNAiMAX and 50 μL of OPTI-MEM were mixed, and then 5 μM siRNA (sense siRNA sequence: […]tt (SEQ ID NO: 1)) and 50 μL of OPTI-MEM were mixed and the resultants were left to stand at room temperature for 5 minutes. And then, the 1 μL Lipofectamine RNAiMAX/50 μL OPTI-MEM and the 5 μM siRNA/50 μL OPTI-MEM were mixed, and the resultant was left to stand at room temperature for 10 minutes, which was added to the cells.
After 5 minutes, the medium (DMEM, 10% FBS) was replaced, and after starvation on the next day, a test compound listed in Tables 10 and 11 was added thereto. After 10 minutes, the medium was discarded and the plate was frozen with liquid nitrogen.
(§11) The respective amounts of pAMPK and AMPK were determined in the same way as in the above Assay 1.

AdipoR1 [3] = molecular target: T2, AdipoR1 (Mus musculus, UniProt Q91VH1); assay: Measurement of AMPK phosphorylation ability (Assay 1), differentiated C2C12 cells, Western blotting; assay type: cell-based; conditions: 10 μM, 10 minutes
T2 construct: C2C12 cells (ATCC; CRL-1772, medium; host or cells: differentiated C2C12
T2 sequence (Q91VH1 1-375): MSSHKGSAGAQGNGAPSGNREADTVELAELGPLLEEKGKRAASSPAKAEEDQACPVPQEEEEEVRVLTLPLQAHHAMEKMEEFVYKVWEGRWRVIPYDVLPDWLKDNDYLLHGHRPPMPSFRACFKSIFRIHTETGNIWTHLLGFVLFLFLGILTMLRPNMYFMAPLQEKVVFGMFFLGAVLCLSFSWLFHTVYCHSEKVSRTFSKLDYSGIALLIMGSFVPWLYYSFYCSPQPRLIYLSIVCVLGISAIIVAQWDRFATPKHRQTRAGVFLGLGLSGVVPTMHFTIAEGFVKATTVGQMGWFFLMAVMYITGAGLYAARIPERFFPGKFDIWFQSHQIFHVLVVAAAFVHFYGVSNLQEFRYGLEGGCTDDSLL
Description: as §1
C2C12 cells (ATCC; CRL-1772, medium; DMEM, 10% FBS) were cultured in a 12- or 24-well plate until they reached 100% confluency (37° C., 5% CO2).
The medium was changed to 2.5% Horse Serum (HS) and differentiation was started. The medium (DMEM, 2.5% HS) was replaced every three days.
After starvation, a test compound listed in Table 12 (concentration: 10 μM) was added thereto, and after 10 minutes, the medium was discarded and the plate was frozen with liquid nitrogen.
as §2, §3, §4, §5, §6, §7, §8, §9, §10

AdipoR1 [4] = assay: Measurement of AMPK phosphorylation ability (Assay 2), C2C12 cells with unrelated or AdipoR1 siRNA; assay type: cell-based, Mouse
Description: C2C12 cells (ATCC; CRL-1772, medium; DMEM, 10% Fetal Bovine Serum (FBS)) were cultured in a 12- or 24-well plate until they reached 100% confluency (37° C., 5% CO2). The medium was changed to DMEM, 2.5% Horse Serum (HS) and differentiation was started. The medium (DMEM, 2.5% HS) was replaced two days after the start of differentiation. The medium (DMEM, 2.5% HS) was further replaced two days after that.
On the next day following the replacement of the medium, first, 1 μL of Lipofectamine RNAiMAX and 50 μL of OPTI-MEM were mixed, and then 5 μM siRNA (sense siRNA sequence: […]tt (SEQ ID NO: 1)) and 50 μL of OPTI-MEM were mixed and the resultants were left to stand at room temperature for 5 minutes. And then, the 1 μL Lipofectamine RNAiMAX/50 μL OPTI-MEM and the 5 μM siRNA/50 μL OPTI-MEM were mixed, and the resultant was left to stand at room temperature for 10 minutes, which was added to the cells.
After 5 minutes, the medium (DMEM, 2.5 HS) was replaced, and after starvation on the next day, a test compound listed in Table 12 was added thereto. After 10 minutes, the medium was discarded and the plate was frozen with liquid nitrogen.
as §11

SMILES	pAMPK/AMPK (%) (AdipoR1 [1]; 25 μM)	pAMPK/AMPK (%) (AdipoR1 [1]; 50 μM)	pAMPK/AMPK (ratio) siRNA, AdipoR1 siRNA (AdipoR1 [2]) [ratio]	pAMPK/AMPK (ratio) siRNA, unrelated siRNA (AdipoR1 [2]) [ratio]	pAMPK/AMPK (%) (AdipoR1 [3])	pAMPK/AMPK (ratio) siRNA, AdipoR1 siRNA (AdipoR1 [4]) [ratio]	pAMPK/AMPK (ratio) siRNA, unrelated siRNA (AdipoR1 [4]) [ratio]
CCOc1ccc(OCC(=O)NC2CCN(Cc3ccc(Cl)c(Cl)c3)CC2)cc1 [Compound 38]	112.70	87.54	2.43	2.67			
CCOc1ccc(OCC(=O)NC2CCN(Cc3cccc(C(F)(F)F)c3)CC2)cc1 [Compound 40]	80.20	91.33	2.25	2.25			
Cc1ccccc1CN1CCC(NC(=O)COc2ccc(Oc3ccccn3)cc2)CC1 [Compound 46]	80.93	80.11	2.74	2.58			
CC(c1ccccc1)N1CCC(NC(=O)COc2ccc(Oc3ccccn3)cc2)CC1 (stereo not drawn) [Compound 47]	80.31	80.39	2.44	2.78			
O=C(COc1ccc(Oc2ccccn2)cc1)NC1CCN(Cc2ccc(F)cc2)CC1 [Compound 48]	80.04	85.28	3.16	3.42			
CC(C)(C)c1ccc(C(=O)NCCC(=O)N2CCN(Cc3cccc4cccnc34)CC2)cc1 [Compound 53]	91.44	81.80	2.04	2.26			
CC(C)c1ccc(CN2CCN(C(=O)CCNC(=O)c3ccc([N+](=O)[O-])cc3)CC2)cc1 [Compound 64]	80.29	83.01	3.57	4.86			
O=C(NCCC(=O)N1CCN(Cc2cccc(OC(F)(F)F)c2)CC1)c1ccc([N+](=O)[O-])cc1 [Compound 69]	80.04	100.79	4.03	5.28			
O=C(NCCC(=O)N1CCN(Cc2cccc(O)c2)CC1)c1ccc2ccccc2c1 [Compound 70]	84.71	88.96	2.46	2.43			
COc1cccc(NC(=O)c2ccc(CN3CCN(Cc4ccccc4)CC3)cc2)c1 [No. 103694]					81.05	3.34	4.67
COc1ccc(CN2CC[C@@]2(C)C(=O)NC2CCN(Cc3ccccc3)CC2)c2ccccc12 [No. 168198]					84.85	2.97	4.53
COc1ccc(CN2CCN(C(=O)CCNC(=O)c3ccc(C(C)(C)C)cc3)CC2)cc1C [No. 183665]					99.03	2.83	2.88
COc1ccccc1N1CCN(CCC(=O)Nc2cccc(Cl)c2)CC1 [No. 189474]					88.87	1.62	2.00
COc1ccccc1N1CCN(CCC(=O)Nc2ccccc2Cl)CC1 [No. 189640]					82.40	1.82	1.85
